The target in assay [1] is Kv1.5 potassium channel subunit (Homo sapiens, UniProt P22460). The experiment in a line: Electrophysiological studies (whole cell patch clamp). As to conditions: inhibition of Kv1.5 potassium currents, Chinese hamster ovary cells stably expressing Kv1.5. In kind it is cell-based. On the procedure:
Electrophysiological recordings of potassium currents in Chinese hamster ovary cells stably expressing the gene construct for the Kv1.5 potassium channel subunit were performed using the whole cell configuration of the patch clamp technique (Hamill et al., Pflugers Archiv 391:85, 1981). Cell lines expressing Kv1.5 were prepared using standard techniques known to those skilled in the art. Cells were plated on glass coverslips at a density of 2×10^4 cells/coverslip and used within 24-48 hours. Solutions used for electrophysiological recordings were as follows. Extracellular bathing solutions contained (in mM) 132 NaCl, 5.4 KCl, 1.8 CaCl2, 0.8 MgCl2, 10 HEPES, 5 glucose at pH 7.3. Electrode pipette solutions for measuring Kv1.5 contain (in mM) 100 KF, 40 KCl, 5 NaCl, 2 MgCl2, 5 mM EGTA, 10 mM HEPES and 5 glucose at pH 7.4, 295 mOsm. The coverslips were placed in a small chamber (volume ˜200 μl) on the mechanical stage of an inverted microscope and […] (2 ml/min) with extracellular recording solution. Drug application is achieved via a series of narrow-bore glass capillary tubes (inner diameter ˜100 μm) positioned approximately 200 μm from the cell.
The testing results of selective compounds from Tables 1 and 2 using this assay are reported in Table 3 (EP) as the potency for inhibition of Kv1.5 potassium currents by compounds of the invention.

Another assay deals with T1, human Kv1.5 (Homo sapiens, UniProt P22460).
T1 construct: expressed in transfected cells
T1 sequence (P22460 whole entry): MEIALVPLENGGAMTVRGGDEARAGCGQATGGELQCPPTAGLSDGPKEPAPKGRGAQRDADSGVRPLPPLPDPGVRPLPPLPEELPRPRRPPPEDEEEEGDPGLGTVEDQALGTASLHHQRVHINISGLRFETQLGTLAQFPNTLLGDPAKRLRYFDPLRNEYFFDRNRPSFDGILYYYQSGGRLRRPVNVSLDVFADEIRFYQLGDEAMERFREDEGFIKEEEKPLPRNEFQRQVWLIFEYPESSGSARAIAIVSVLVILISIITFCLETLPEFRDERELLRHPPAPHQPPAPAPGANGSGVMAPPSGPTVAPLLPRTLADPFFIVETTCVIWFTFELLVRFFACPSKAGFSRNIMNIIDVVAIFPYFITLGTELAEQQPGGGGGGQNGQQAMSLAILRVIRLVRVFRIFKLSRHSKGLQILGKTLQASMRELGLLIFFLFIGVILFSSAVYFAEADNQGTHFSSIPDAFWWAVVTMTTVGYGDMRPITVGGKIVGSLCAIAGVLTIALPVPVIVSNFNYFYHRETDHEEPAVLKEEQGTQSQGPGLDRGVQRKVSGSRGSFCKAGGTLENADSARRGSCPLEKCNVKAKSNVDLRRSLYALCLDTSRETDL
Kind of assay: 86Rb efflux assay. Format: cell-based. As to conditions: inhibition of 86Rb efflux through Kv1.5 potassium channels expressed in CHO cells; 70 mM KCl depolarization; read-out: IC50 (μM) (flux). On the procedure:
Cells stably transfected with cDNA for human Kv1.5 (in pcDNA3 vector) were grown as confluent monolayers in 96 well tissue culture plates in MEM alpha with 10% heat inactivated fetal bovine serum and 400 μg/ml G418. Cells were incubated overnight in growth media containing 1 μCi/ml ^86Rb to permit intracellular uptake of the isotope. At the end of the incubation period, the ^86Rb solution is aspirated and the cells washed three times with Earls Balanced Salt Solution (EBSS) which contains (in mM) 132 NaCl, 5.4 KCl, 1.8 CaCl2, 0.8 mM MgCl2 10 mM HEPES and 5 mM glucose. The cells were then preincubated for 10 minutes at room temperature in 100 μl/well of EBSS or EBSS containing test compounds. At the end of this period the wells were aspirated and to each well is then added 100 μl of a modified EBSS solution containing 70 mM KCl (NaCl replaced by KCl) and the compound to be tested. The high KCl concentration is utilized to depolarize the cells to membrane potentials that will activate Kv1.5 channels. After a 1 minute incubation in 70 mM KCl EBSS plus test compound, the solution is removed and placed into the appropriate well of a 96 well counting plate for analysis. Finally 100 μl of 0.1% sodium dodecyl sulfate in EBSS is added to each well to lyse the cells. The lysate is taken for analysis to determine final cell content of ^86Rb. Samples were counted in a Wallac Microbeta liquid scintillation counter by Cerenkov emission. Efflux is expressed as a percentage of the initial cell content of ^86Rb.
The testing results of selective compounds from Tables 1 and 2 using this assay are reported in Table 3 (flux) as the potency for inhibition of ^86Rb efflux through Kv1.5 potassium channels expressed in CHO cells by compounds of the invention.

Chain of Kv1.5 potassium channel subunit (P22460 whole entry): as above

For orientation: IC50 means the point on the concentration scale where inhibition reaches its midpoint. For `Cc1ccc(C2SCC(=O)N2CCCCc2ccccc2)cc1C` (centres unmarked) [60 of Table 1], the IC50 in assay [1] was 0.3 µM; at human Kv1.5 it was 6.9 µM. In the case of `COc1ccc(CCN2C(=O)CCSC2c2ccc(C)c(C)c2)cc1` (centres unmarked) [2 of Table 2], the IC50 was determined as 0.3 µM in assay [1] and 1.5 µM on human Kv1.5. The like results for `CCCCCCN1C(=O)CSC1c1cccc(OC)c1` (centres unmarked) [77 of Table 1] were, in that order, 1.6 µM and 10.5 µM.

In the case of `COc1ccc(CN2C(=O)CSC2c2cccc(OC)c2)cc1` (centres unmarked) [36 of Table 1], the IC50 in assay [1] is 4.7 µM; on human Kv1.5, 30 µM.

As to `COc1ccc(CCN2C(=O)CCSC2c2ccc3c(c2)OCO3)cc1` (centres unmarked) [18 of Table 2], the IC50 turned out to be 1 µM in assay [1] and 1.5 µM at human Kv1.5. For `COc1cccc(CCN2C(=O)CSC2c2ccc3c(c2)OCO3)c1` (centres unmarked) [8 of Table 1] the same measures were 1.2 µM and 9.9 µM.

In the case of `COc1ccc(CCN2C(=O)CSC2c2ccc(OC)c(OC)c2)cc1` (centres unmarked) [5 of Table 1], the values for the IC50 (in assay [1]; on human Kv1.5) were 6 µM and 29.6 µM, respectively.

For the compound `Cc1ccc(C2SCC(=O)N2CC#Cc2ccccc2)cc1C` (centres unmarked) [82 of Table 1], at human Kv1.5, the IC50 turned out to be 4.7 µM. `COc1ccc(CCN2C(=O)CSC2c2cccc(OC)c2)cc1` (centres unmarked) [1 of Table 1]: the IC50 came out at 0.6 µM in assay [1] and 3.9 µM on human Kv1.5. The like results for `COc1ccc(CCN2C(=O)CSC2c2ccc(C)c(C)c2)cc1` (centres unmarked) [52 of Table 1] were, in that order, 0.2 µM and 0.9 µM.

For `COc1ccc(CCN2C(=O)C(C)SC2c2ccc3c(c2)OCCO3)cc1` (centres unmarked) [45 of Table 1], in assay [1], the IC50 turned out to be 0.6 µM. `COc1ccc(CCN2C(=O)CSC2c2ccc(F)c(F)c2)cc1` (centres unmarked) [23 of Table 1]: the IC50 at human Kv1.5 was found to be 14.5 µM. With `CCc1ccc(C2SCC(=O)N2CCc2ccc(OC)cc2)s1` (centres unmarked) [67 of Table 1], the IC50 amounted to 0.7 µM in assay [1] and 1.3 µM at human Kv1.5.

Source of the values: patent US6395730B1, “Potassium channel inhibitors” (Icagen, Inc., priority 1998, dated 2002).
